Data on 7 compounds can be found in patent US20160355483A1, “COMPOUND BINDING TO PPARG BUT NOT ACTING AS PROMOTER AND PHARMACEUTICAL COMPOSITION FOR TREATING PPARG-RELATED DISEASES CONTAINING SAME AS ACTIVE INGREDIENT” (Hyundai Pharm Co., Ltd., priority 2014, published 2016).

Structures are written as SMILES. Entries after “also recorded” stand apart in the source; their conditions may differ.

In data set [1] the target is T1, PPARG (peroxisome proliferator activated receptor-gamma), GST-PPARG-LBD (Homo sapiens, UniProt P37231).
T1 construct: 15 μL of 5 nM GST-PPARG-LBD and 5 nM Tb-GST-antibody were added; purchased Invitrogen PV4894
T1 sequence (P37231 238-503 limits assumed): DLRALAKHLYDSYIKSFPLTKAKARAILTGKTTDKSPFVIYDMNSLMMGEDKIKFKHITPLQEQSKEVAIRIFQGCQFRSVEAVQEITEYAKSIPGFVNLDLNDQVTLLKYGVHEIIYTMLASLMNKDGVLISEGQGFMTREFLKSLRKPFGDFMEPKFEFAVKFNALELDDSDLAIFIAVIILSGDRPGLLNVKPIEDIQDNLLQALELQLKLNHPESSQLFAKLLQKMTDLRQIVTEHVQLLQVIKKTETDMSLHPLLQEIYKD
The experiment in a line: LanthaScreen TR-FRET PPARG Competitive Binding Assay. On the set-up: key: “+” indicates the degree of the binding activity, and as the number of “+” increases, the binding activity is stronger; ++: “+” indicates the degree of the binding activity, and as the number of “+” increases, the binding activity is stronger; +++: “+” indicates the degree of the binding activity, and as the number of “+” increases, the binding activity is stronger; ++++: “+” indicates the degree of the binding activity, and as the number of “+” increases, the binding activity is stronger. The settings on record: degree of binding activity. The gist of the method:
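GST-tagged human PPARG LBD in a TR-FRET competitive binding kit, 1 h at room temperature. Read-out is the 518/488 nm emission ratio (340 nm excitation); activity = 100% − compound ratio/vehicle ratio, compared with rosiglitazone.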
On the technique in general: TR-FRET usually uses a lanthanide donor and a delayed reading to cut background.

In data set [2] the target is T2, CYP 2C19 (Homo sapiens, UniProt P33261).
T2 construct: purchased BD GENTEST 459400
T2 sequence (P33261 whole entry): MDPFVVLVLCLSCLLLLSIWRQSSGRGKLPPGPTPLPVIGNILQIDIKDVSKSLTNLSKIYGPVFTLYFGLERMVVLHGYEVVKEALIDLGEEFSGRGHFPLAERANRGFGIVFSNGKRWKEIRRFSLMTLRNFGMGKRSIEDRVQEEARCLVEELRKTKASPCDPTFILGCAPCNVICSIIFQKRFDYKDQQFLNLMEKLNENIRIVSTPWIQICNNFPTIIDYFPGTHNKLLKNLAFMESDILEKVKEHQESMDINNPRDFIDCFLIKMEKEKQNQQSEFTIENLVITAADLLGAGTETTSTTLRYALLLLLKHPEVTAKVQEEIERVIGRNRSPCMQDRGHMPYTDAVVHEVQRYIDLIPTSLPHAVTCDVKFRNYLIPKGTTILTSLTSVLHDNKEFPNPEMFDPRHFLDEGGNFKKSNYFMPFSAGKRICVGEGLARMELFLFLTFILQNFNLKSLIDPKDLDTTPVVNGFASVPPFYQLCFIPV
As to the kind of experiment: CYP (cytochrome P450)-suppressing effect, BD GENTEST kit. The data set is classed as in vitro ADME. The procedure:
(§1) To evaluate the CYP (cytochrome P450)-suppressing activity of the compounds prepared in the examples of the invention, the following experiment was performed.
(§2) The analysis of CYP1A2, 2C19, and 3A4 suppressing activity was performed by using a BD GENTEST (459100, 459400, and 459500) kit, and the analysis of CYP 2C9- and 2D6-suppressing activity was performed by using an Invitrogen (P2861 and P2862) kit.
(§3) When the BD GENTEST kit was used, the compounds of the present invention were diluted in acetonitrile at the final concentration of 50×. The NADPH-Cofactor mix was prepared by diluting the Cofactor, G6PDH, and control protein provided by the kit in DW according to the instructed concentration. 4 μL of the compound of the example (50×) was mixed with 96 μL of NADPH-Cofactor mix in a 96-well plate, followed by pre-incubation in a 37° C. incubator for 10 minutes.
(§4) The enzyme/substrate mixture was diluted in the buffer (0.5 M potassium phosphate, pH 7.4) provided by the kit according to the instructed concentration. Each CYP450 enzyme substrate was diluted in DW at a desired concentration respectively according to the corresponding types of CYP450. 100 μL of the enzyme/substrate mixture was loaded in the plate when the pre-incubation had been completed, followed by reaction in a 37° C. incubator for 15 minutes (1A2) and 30 minutes (3A4 and 2C19). Upon completion of the reaction, the mixture was transferred to a white plate, and the fluorescent wavelength was measured with a microplate reader (1A2, 2C19 excitation 410 nm, emission 460 nm; 3A4, excitation 409 nm, emission 530 nm).
(§5) The test results were calculated by the following formula:
(§6) (1−(fluorescence value of the test material/fluorescence value of the vehicle))×100%.

The target of data set [3] is T3, CYP 3A4 (Homo sapiens, UniProt P08684).
T3 construct: purchased BD GENTEST 459500
T3 sequence (P08684 whole entry): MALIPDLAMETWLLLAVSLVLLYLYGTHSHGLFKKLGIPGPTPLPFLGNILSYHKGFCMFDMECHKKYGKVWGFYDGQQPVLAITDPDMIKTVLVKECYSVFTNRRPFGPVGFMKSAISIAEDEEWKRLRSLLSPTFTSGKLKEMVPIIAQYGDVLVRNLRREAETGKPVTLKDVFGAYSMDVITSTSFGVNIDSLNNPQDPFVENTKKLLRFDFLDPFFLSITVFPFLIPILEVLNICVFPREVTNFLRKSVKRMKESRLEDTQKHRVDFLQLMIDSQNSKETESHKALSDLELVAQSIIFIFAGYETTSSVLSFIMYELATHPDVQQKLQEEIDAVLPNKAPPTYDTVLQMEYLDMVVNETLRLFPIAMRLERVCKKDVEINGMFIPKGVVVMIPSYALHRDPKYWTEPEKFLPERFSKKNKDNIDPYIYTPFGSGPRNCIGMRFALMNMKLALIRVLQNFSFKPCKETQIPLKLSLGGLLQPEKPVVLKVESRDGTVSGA
The description is as above. Type of data set: in vitro ADME. The procedure: as §1, §2, §3, §4, §5, §6

Data set [4] addresses T4, CYP1A2 (Homo sapiens, UniProt P05177).
T4 construct: purchased BD GENTEST 459100
T4 sequence (P05177 1-516): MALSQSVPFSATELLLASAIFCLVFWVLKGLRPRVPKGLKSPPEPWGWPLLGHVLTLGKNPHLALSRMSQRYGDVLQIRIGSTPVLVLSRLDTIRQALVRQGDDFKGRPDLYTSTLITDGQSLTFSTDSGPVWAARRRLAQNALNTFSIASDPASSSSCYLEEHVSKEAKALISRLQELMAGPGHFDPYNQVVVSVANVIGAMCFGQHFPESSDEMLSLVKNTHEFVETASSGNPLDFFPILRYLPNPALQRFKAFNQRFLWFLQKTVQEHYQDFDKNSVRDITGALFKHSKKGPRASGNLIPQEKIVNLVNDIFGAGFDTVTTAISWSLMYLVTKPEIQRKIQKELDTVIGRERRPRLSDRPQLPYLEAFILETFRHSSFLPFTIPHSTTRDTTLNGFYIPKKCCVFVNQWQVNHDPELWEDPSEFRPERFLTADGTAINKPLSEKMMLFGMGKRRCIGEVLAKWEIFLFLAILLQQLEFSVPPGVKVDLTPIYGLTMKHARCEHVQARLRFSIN
The description is as above. The data set is classed as in vitro ADME. How it is done: as §1, §2, §3, §4, §5, §6

Data set [5] has as its system CYP isozymes 1A2, 2C9, 2C19, and 2D6. As to the kind of experiment: CYP suppression compared with comparative examples (Table 3). Type of data set: in vitro ADME. The settings on record: result in words. How it is done: as §1, §2
(§7) When the Invitrogen kit was used, the compounds of the present invention were diluted in Vivid CYP450 reaction buffer (1×) at the final concentration of 2.5×. The P450 BACULOSOMES sample and Regeneration system (100×) were diluted in Vivid CYP450 reaction buffer (1×) at different proper concentrations. 80 μL of the compound of the invention (2.5×) and […] of the diluted P450 BACULOSOMES sample mixture were mixed in a U-bottom 96-well plate, followed by pre-incubation for 10 minutes. Vivid CYP450 Substrate and NADP+ (100×) were diluted in Vivid CYP450 reaction buffer (1×) at a desired concentration, respectively, according to their corresponding types of CYP450 and substrates. 20 μL of Substrate-NADP+ mix was loaded in the plate when the pre-incubation had been completed, followed by reaction for 1 hour. Upon completion of the reaction, the reaction mixture was transferred in a white plate and fluorescent wavelength was measured with a microplate reader (2C9 excitation 415 nm, emission 460 nm, 2D6 excitation 400 nm, emission 502 nm).
as §3, §4, §5, §6

The target in data set [6] is T5, CYP 2C9 (Homo sapiens, UniProt P11712).
T5 construct: purchased Invitrogen P2861
T5 sequence (P11712 whole entry): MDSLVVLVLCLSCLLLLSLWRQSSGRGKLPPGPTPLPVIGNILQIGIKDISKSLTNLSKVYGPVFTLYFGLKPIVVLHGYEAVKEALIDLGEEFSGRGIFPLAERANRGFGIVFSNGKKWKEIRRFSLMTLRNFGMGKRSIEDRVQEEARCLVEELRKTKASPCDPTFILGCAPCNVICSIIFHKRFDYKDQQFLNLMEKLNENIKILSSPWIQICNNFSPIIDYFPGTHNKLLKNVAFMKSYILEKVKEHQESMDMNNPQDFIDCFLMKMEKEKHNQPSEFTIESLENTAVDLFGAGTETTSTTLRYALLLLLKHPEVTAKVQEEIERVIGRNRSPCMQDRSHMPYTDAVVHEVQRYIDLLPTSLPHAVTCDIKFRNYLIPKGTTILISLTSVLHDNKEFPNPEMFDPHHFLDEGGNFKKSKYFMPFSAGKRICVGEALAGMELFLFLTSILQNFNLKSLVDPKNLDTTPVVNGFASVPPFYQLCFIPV
As to the kind of experiment: CYP (cytochrome P450)-suppressing effect, Invitrogen Vivid kit. Type of data set: in vitro ADME. The procedure:
as §1, §2, §7, §5, §6

The target in data set [7] is T6, CYP 2D6 (Homo sapiens, UniProt P10635).
T6 construct: purchased Invitrogen P2862
T6 sequence (P10635 whole entry): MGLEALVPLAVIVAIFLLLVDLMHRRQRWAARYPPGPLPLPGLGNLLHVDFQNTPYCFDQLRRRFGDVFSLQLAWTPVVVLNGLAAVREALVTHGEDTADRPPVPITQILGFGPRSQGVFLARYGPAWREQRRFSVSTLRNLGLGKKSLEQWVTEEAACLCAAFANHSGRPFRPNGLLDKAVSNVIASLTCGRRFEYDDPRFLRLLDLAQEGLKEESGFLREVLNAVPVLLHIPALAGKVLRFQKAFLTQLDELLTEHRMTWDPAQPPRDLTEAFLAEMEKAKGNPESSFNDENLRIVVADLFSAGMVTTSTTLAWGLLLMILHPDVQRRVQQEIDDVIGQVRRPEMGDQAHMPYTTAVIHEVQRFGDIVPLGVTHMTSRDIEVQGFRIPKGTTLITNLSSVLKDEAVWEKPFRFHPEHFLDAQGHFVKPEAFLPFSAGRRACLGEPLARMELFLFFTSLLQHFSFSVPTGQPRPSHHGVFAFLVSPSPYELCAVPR
The data set is described as above. The data set is classed as in vitro ADME. The procedure:
as §1, §2, §7, §5, §6

As to `C[C@H](NC(=O)c1ccc2c(c1)CCCN2Cc1ccc(-c2ccccc2C(N)=O)cc1F)c1ccc2ccccc2c1` [Example 115, (S)-1-((2′-carbamoyl-3-fluoro-[1,1′-biphenyl]-4-yl)methyl)-N-(1-(naphthalene-2-yl)ethyl)-1,2,3,4-tetrahydroquinoline-6-carboxamide], the “Binding assay (1 μLM)” value in data set [1] is “+++”. Further, in data set [2], the “CYP(10 μL, %) 2C19” value came out at 59.33%. Besides, the “CYP(10 μL, %) 3A4” value in data set [3] stood at 77.73%. Besides, the “CYP(10 μL, %) 1A2” value in data set [4] amounted to 97.62%. Besides, the “suppression of CYP isozymes 1A2, 2C9, 2C19, and 2D6 compared with SR1664 and SR1824” value (“suppression … compared with SR1664 and SR1824” below) in data set [5] is listed as “less than the compounds of the comparative examples; also recorded: less strongly than the compounds of the Comparative Examples”. In data set [6], the “CYP(10 μL, %) 2C9” value came out at 63.87%. The “CYP(10 μL, %) 2D6” value in data set [7] is recorded as 95.56%.
For the compound `C[C@H](NC(=O)c1ccc2c(c1)CCCN2Cc1ccc(-c2ccccc2C(N)=O)cc1)c1ccc(F)cc1` [Example 36, (S)-1-((2′-carbamoyl-[1,1′-biphenyl]-4-yl)methyl)-N-(1-(4-fluorophenyl)ethyl)-1,2,3,4-tetrahydroquinoline-6-carboxamide], in data set [1], the “Binding assay (1 μLM)” value is recorded as “+++”. The “CYP(10 μL, %) 2C19” value in data set [2] turned out to be 52.68%. In addition, the “CYP(10 μL, %) 3A4” value in data set [3] is 58.18%. In addition, the “CYP(10 μL, %) 1A2” value in data set [4] is listed as 98.84%. Besides, in data set [5], the “suppression … compared with SR1664 and SR1824” value is “less than the compounds of the comparative examples; also recorded: less strongly than the compounds of the Comparative Examples”. Moreover, the “CYP(10 μL, %) 2C9” value in data set [6] came to 51.03%. Moreover, the “CYP(10 μL, %) 2D6” value in data set [7] was 75.73%.
In the case of `C[C@H](NC(=O)c1ccc2c(c1)CCCN2Cc1ccc(-c2ccccc2C(N)=O)cc1)c1ccc2ccccc2c1` [Example 44, (S)-1-((2′-carbamoyl-[1,1′-biphenyl]-4-yl)methyl)-N-(1-(naphthalene-2-yl)ethyl)-1,2,3,4-tetrahydroquinoline-6-carboxamide], the “Binding assay (1 μLM)” value in data set [1] is reported as “+++”. In addition, the “CYP(10 μL, %) 2C19” value in data set [2] is 59.55%. The “CYP(10 μL, %) 3A4” value in data set [3] is 70.42%. Further, the “CYP(10 μL, %) 1A2” value in data set [4] was determined as 94.56%. Further, the “suppression … compared with SR1664 and SR1824” value in data set [5] is reported as “less than the compounds of the comparative examples; also recorded: less strongly than the compounds of the Comparative Examples”. In addition, in data set [6], the “CYP(10 μL, %) 2C9” value is reported as 56.40%. Further, the “CYP(10 μL, %) 2D6” value in data set [7] is reported as 97.07%.
Turning to `C[C@H](NC(=O)c1ccc2c(c1)CCCN2Cc1cccc(-c2ccccc2C(N)=O)c1F)c1ccc([N+](=O)[O-])cc1` [Example 131, (S)-1-((2′-carbamoyl-2-fluoro-[1,1′-biphenyl]-3-yl)methyl)-N-(1-(4-nitrophenyl)ethyl)-1,2,3,4-tetrahydroquinoline-6-carboxamide], the “Binding assay (1 μLM)” value in data set [1] was “+++”. For the same compound, the “CYP(10 μL, %) 2C19” value in data set [2] is recorded as 54.84%. Besides, the “CYP(10 μL, %) 3A4” value in data set [3] amounted to 55.88%. In data set [4], the “CYP(10 μL, %) 1A2” value stood at 94.17%. In data set [5], the “suppression … compared with SR1664 and SR1824” value is on record as “less than the compounds of the comparative examples; also recorded: less strongly than the compounds of the Comparative Examples”. In data set [6], the “CYP(10 μL, %) 2C9” value was determined as 52.84%. Besides, the “CYP(10 μL, %) 2D6” value in data set [7] is reported as 86.92%.
In the case of `Cc1c(C)n(Cc2ccc(-c3ccccc3C(=O)O)cc2)c2ccc(C(=O)NC(C)c3ccc(Br)cc3)cc12` (centres unmarked) [2 (SR1824), SR1824, reference compound], in data set [2], the “CYP(10 μL, %) 2C19” value came to 32.45%. Also, the “CYP(10 μL, %) 3A4” value in data set [3] amounted to 71.88%. Also, the “CYP(10 μL, %) 1A2” value in data set [4] is 64.12%. Moreover, the “CYP(10 μL, %) 2C9” value in data set [6] was 6.43%. Besides, the “CYP(10 μL, %) 2D6” value in data set [7] amounted to 68.34%.
As for `C[C@H](NC(=O)c1ccc2c(c1)CCCN2Cc1cccc(-c2ccccc2C(=O)O)c1)c1ccc(C#N)cc1` [Example 118, (S)-3′-((6-((1-(4-cyanophenyl)ethyl)carbamoyl)-3,4-dihydroquinoline-1(2H)-yl)methyl)-[1,1′-biphenyl]-2-carboxylic acid], the “Binding assay (1 μLM)” value in data set [1] was “+”. Moreover, the “CYP(10 μL, %) 2C19” value in data set [2] is given as 74.03%. The “CYP(10 μL, %) 3A4” value in data set [3] was found to be 71.21%. Besides, the “CYP(10 μL, %) 1A2” value in data set [4] stood at 101.50%. Besides, the “suppression … compared with SR1664 and SR1824” value in data set [5] is on record as “less than the compounds of the comparative examples; also recorded: less strongly than the compounds of the Comparative Examples”. Further, the “CYP(10 μL, %) 2C9” value in data set [6] worked out at 52.02%. Besides, in data set [7], the “CYP(10 μL, %) 2D6” value is reported as 94.83%.
Regarding `C[C@H](NC(=O)c1ccc2c(c1)OCCN2Cc1ccc(-c2ccccc2C(N)=O)cc1)c1ccc2ccccc2c1` [Example 96, (S)-4-((2′-carbamoyl-[1,1′-biphenyl]-4-yl)methyl)-N-(1-(naphthalene-2-yl)ethyl)-3,4-dihydro-2H-benzo[b][1,4]oxazine-7-carboxamide], the “Binding assay (1 μLM)” value in data set [1] is on record as “+++”. Besides, the “CYP(10 μL, %) 2C19” value in data set [2] came to 52.35%. Besides, the “CYP(10 μL, %) 3A4” value in data set [3] is 98.04%. Further, the “CYP(10 μL, %) 1A2” value in data set [4] is on record as 92.41%. Further, the “suppression … compared with SR1664 and SR1824” value in data set [5] is given as “less than the compounds of the comparative examples; also recorded: less strongly than the compounds of the Comparative Examples”. In addition, the “CYP(10 μL, %) 2C9” value in data set [6] was 57.63%. Moreover, in data set [7], the “CYP(10 μL, %) 2D6” value is 98.66%.
